# Values of other authors, collected in PMC4183665 (2014).
# “Also recorded” adds a separate entry of the source.
# Columns and labels:
# [1] = tested on: dipeptidyl peptidase-4 (DPP-4)
substance,measurement,setting,value
H-HAEGTFTSDVSSYLEGQAAKEFIAWLVKGRG-NH2,cleaved bond,neprilysin (NEP 24.11),cleaves after Ser18; also recorded: cleaves after Tyr19; also recorded: cleaves after Glu27; also recorded: cleaves after Phe28
same,cleaved bond,[1],cleaves after Ala8
